# Measured values: publication PMC9617852, “In vitro and in vivo assessment of the antioxidant potential of isoxazole derivatives” (Scientific Reports, 2022)
# Like-named read-outs stand apart in the source and are kept apart here. Marks after values point to notes of the source that are not given here.
# How the values were obtained:
# [1] = DPPH free radical scavenging assay (in vitro antioxidant activity); settings: DPPH in methanol, 30 min in the dark at 25 °C, absorbance 517 nm
# Text: To determine the antioxidant activities, the 2,2-Diphenyl-1-picrylhydrazyl (DPPH) was used, which is considered one of the most widely used methods for measuring the in vitro antioxidant activity of various chemical compounds. This colorimetric method is accurate, easy to perform, and economical, providing a screening of the general activity of the antioxidants and is based on a stable and synthetic radical, DPPH[15].
# When DPPH reacts with an antioxidant compound, its free radical property is lost and its color changes from violet to yellow. The decrease in absorbance at 517 nm induced by antioxidants determines the reduction ability of DPPH.
# The free DPPH radical scavenging assay was used to measure the antioxidant activity of the isoxazole derivatives. A 1000 μg/ml stock solution of each compound was prepared in methanol. In addition, a 1000 μg/ml solution of Trolox was also prepared (the reference standard). […] Optical densities were then measured with a spectrophotometer at a wavelength of 517 nm. The following equation was used to calculate % DPPH inhibition for each compound, with Trolox as the standard compound: DPPHinhibition%=AB-Ats/AB×100% where, AB is the recorded absorbance of the blank solution, and Ats is the recorded absorbance of the tested sample solution[25].
# [2] = biological target: T1, porcine pancreatic α-amylase (Sus scrofa, UniProt P00690); test: α-Amylase inhibitory assay; assay type: biochemical
# T1 construct: purchased Alfa Aesar, Sigma-Aldrich, and Frutarom (UK)
# T1 sequence (P00690 16-511): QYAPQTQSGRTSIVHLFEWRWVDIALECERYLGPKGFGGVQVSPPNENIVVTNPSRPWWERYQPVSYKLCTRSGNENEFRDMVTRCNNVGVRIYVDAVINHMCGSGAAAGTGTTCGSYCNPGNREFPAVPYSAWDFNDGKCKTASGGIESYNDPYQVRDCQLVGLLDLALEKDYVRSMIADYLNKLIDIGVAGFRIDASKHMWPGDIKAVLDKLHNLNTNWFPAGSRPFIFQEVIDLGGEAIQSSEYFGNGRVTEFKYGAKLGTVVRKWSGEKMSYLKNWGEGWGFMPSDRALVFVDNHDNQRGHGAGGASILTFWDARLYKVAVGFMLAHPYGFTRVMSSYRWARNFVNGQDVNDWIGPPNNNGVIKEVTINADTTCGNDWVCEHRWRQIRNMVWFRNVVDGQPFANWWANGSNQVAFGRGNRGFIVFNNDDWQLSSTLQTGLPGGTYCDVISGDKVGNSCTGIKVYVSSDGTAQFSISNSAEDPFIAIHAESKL
# Protocol: A 5 mg of each fraction was dissolved in a few milliliters of 10% DMSO, and then further dissolved up to 100 ml in 0.02 M Na2HPO4/NaH2PO4, 0.006 M NaCl, pH 6.9 to give finally stock solutions with concentrations of 1000 μg/ml. From these, the following dilutions were prepared of 10, 50, 70, 100, and 500 μg/ml, using 10% DMSO as the diluent. A 0.2 ml volume of 2 units/ml porcine pancreatic α-amylase was mixed with 0.2 ml compounds dilution and was incubated for 10 min at 30 °C. After incubation, 0.2 ml of a freshly prepared 1% starch solution in water was added, and the tubes were then incubated for at least three more minutes. At this point, the reaction was stopped by the addition of 0.2 ml 3,5-dinitro salicylic acid (DNSA) color reagent and was diluted with 5 ml of distilled water, before being heated at 90 °C for 10 min in a water bath. The mixture was then cooled to room temperature, and the absorbance was measured at 540 nm. The blank control was prepared using the same quantities described above, but replacing the compound solution with 0.2 ml buffer.
# [3] = biological target: T2, porcine pancreatic lipase (Sus scrofa, UniProt P00591); test: Porcine pancreatic lipase inhibition assay; assay type: biochemical; settings: substrate p-nitrophenyl butyrate, 37 °C, 410 nm; highest concentration 400 µg/ml
# T2 construct: purchased Alfa Aesar, Sigma-Aldrich, and Frutarom (UK)
# T2 sequence (P00591 1-450): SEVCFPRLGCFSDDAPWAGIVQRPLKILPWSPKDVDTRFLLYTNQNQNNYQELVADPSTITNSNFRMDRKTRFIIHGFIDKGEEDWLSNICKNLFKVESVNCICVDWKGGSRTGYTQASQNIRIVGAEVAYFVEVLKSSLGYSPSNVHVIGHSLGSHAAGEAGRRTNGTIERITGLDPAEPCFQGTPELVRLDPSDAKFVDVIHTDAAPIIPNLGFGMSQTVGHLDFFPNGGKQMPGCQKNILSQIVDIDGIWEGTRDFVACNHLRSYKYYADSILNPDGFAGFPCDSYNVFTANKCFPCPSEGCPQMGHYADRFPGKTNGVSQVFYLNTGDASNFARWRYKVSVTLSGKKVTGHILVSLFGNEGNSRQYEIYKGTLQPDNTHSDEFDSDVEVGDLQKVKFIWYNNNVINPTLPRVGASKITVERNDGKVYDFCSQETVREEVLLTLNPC
# Protocol: Stock solutions of 500 µg/ml were made from each compound in 10% DMSO. From these, a dilution series of five concentrations of 50, 100, 200, 300, and 400 μg/ml were made. A 1 mg/ml stock solution of porcine pancreatic lipase in Tris–HCl buffer was prepared freshly just before use. The substrate, p-nitrophenyl butyrate (PNPB) was prepared by dissolving 20.9 mg in 2 ml acetonitrile. For each working solution, 0.1 ml porcine pancreatic lipase was mixed with 0.2 ml of compound solution from each member of the dilution series. Tris–HCl was added to make the final volume of the working solutions 1 ml, and they were incubated at 37 °C for 15 min. After incubation, 0.1 ml p-nitrophenyl butyrate solution was added to each test tube. The mixture was then incubated for a further 30 min at 37 °C. Pancreatic lipase activity was determined by measuring the hydrolysis of PNPB into p-nitrophenolate at 410 nm, using a UV spectrophotometer. […] Percentage lipase inhibition by compound dilution was calculated with the following equation: Lipaseinhibition%=AB-Ats/AB×100% where, AB is the recorded absorbance of the blank solution, and Ats is the recorded absorbance of the tested sample solution[31].
# [4] = tested on: total antioxidant capacity (TAC) in the blood of mice; test: In vivo total antioxidant capacity (TAC) in mice, Abcam ab65329 kit; settings: for TAC (Trolox equivalents): plasma
# Protocol: For this purpose, the TAC was determined using a commercially available assay kit (Abcam ab65329), in four groups of mice: 2a treated (5 mg/kg over 6 days, n = 5), 2a treated (10 mg/kg over 6 days, n = 5), quercetin treated (positive control; 10 mg/kg over 6 days, n = 5), and vehicle-treated (negative control; n = 5). All mice were sacrificed seven days after the treatment (or the first administration of the vehicle).
# The absorbance values of the used kit were plotted against a serial concentration of Trolox standards in the concentration range of (4–20 nM). […] The generated regression line equation was utilized to calculate the Trolox equivalent total antioxidant activity of the injected compound and positive quercetin control of the experimental mice. The average results of the total antioxidant activity of ten replicates of plasma samples were reported. […] The summary of the results is shown in (Fig. 6).
# Twenty mice were divided into four groups randomly, with five mice in each. The first group was administered with our novel compound 2a (5 mg/kg), the second group with the same compound (10 mg/kg), the third group with Quercetin (10 mg/kg) as a positive control, and the fourth group with normal saline (20%) and propylene glycol 80% as a negative control group.
# To test the TAC of the novel compound, four groups of mice were injected intraperitoneal (i.p.) and employed with vehicle (80% polyethylene glycol (PG) and 20% normal saline (NS) for 6 days. The first and second groups were injected with 5 and 10 mg/kg/day of 2a compound dissolved in the same vehicle, respectively. The third group was injected with a known antioxidant agent positive control (Quercetin), with 10 mg/kg/day, and the last group was the negative control group (80% polyethylene glycol (PG) and 20% Normal saline (NS). All mice were anesthetized with ketamine (60 mg/kg) and xylazine (5 mg/kg) and sacrificed 24 h after the final injection. Then, the mouse blood sample was collected and centrifuged to collect serum. For long-term stability, serum was frozen at − 20 °C[27],[28].
# All mice were sacrificed after seven days of treatment by placing each mouse in a plexiglass chamber with 5% of isoflurane anesthetic drug, for 5 min, and then when the mouse was fully sedated, they were sacrificed by rapid decapitation. Trunk blood was collected in EDTA-coated tubes for use in the kit assay[29],[30].
# Using DPPH assay that basis on measures the total antioxidant capacity (TAC) of compounds that can transfer hydrogen atoms. […] Antioxidant compounds, which can transfer an electron to DMPD• + , cause a discoloration of the solution. […] The reduced Cu + ion is chelated with a colorimetric probe giving a broad absorbance peak around 570 nm, proportional to the total antioxidant capacity. […]
# [5] = tested on: Hep3B; parameters: method as in doi:10.1515/chem-2021-0078; settings: Hep3B cancer cell line; cited from earlier work
# [6] = Water solubility; assay type: physicochemical; settings: can be dissolved with propylene glycol
# [7] = parameters: method as in PMID 33763478; settings: similar isoxazole series, earlier report; cited from earlier work
smiles,measurement,setting,value
"Cc1onc(-c2ccc(F)cc2)c1C(=O)Nc1ccc(C(C)(C)C)cc1 [2a, N-(4-(tert-butyl)phenyl)-3-(4-fluorophenyl)-5-methylisoxazole-4-carboxamide]",IC50 DPPH,[1],0.45 ± 0.21 µg/mL
same,IC50,"[2]; starch substrate, DNSA, 540 nm, highest concentration 500 µg/ml",> 1420 µM
same,IC50,[3],> 1140 µM
same,TAC (Trolox equivalents),[4]; 5 mg/kg i.p. over 6 days,640.2 nmol L–1
same,TAC (Trolox equivalents),[4]; 10 mg/kg i.p. over 6 days,682.9 nmol L–1
same,TAC relative to mice treated with the positive control Quercetin,[4]; i.p.,two folds greater
same,IC50 against Hep3B,[5],9.58 µg/mL
same,water solubility,[6],low water solubility
"C[C@H]1O[C@H](O[C@H]2[C@H](O)[C@@H](O)[C@@H](O[C@H]3[C@H](O)[C@@H](O)C(O)O[C@@H]3CO)O[C@@H]2CO)[C@H](O)[C@@H](O)[C@@H]1N[C@H]1C=C(CO)[C@@H](O)[C@H](O)[C@H]1O (stereo partly drawn) [Acarbose, reference compound]",inhibition at 500 µg/mL,[2]; read-out: percentage of inhibition of α-amylase,72.5%
Cc1onc(-c2ccccc2Cl)c1C(=O)Nc1ccc(C(C)(C)C)cc1 [N-(4-(tert-butyl)phenyl)-3-(2-chlorophenyl)-5-methylisoxazole-4-carboxamide],IC50 DPPH,[7],7.8 µg/mL
"O=c1c(O)c(-c2ccc(O)c(O)c2)oc2cc(O)cc(O)c12 [Quercetin, reference compound]",TAC (Trolox equivalents),[4]; 10 mg/kg i.p. over 6 days,221.0 nmol L–1
"Cc1c(C)c2c(c(C)c1O)CCC(C)(C(=O)O)O2 (stereo not drawn) [Trolox, reference compound]",IC50 DPPH,[1],3.10 ± 0.92^a µg/ml
